According to paper PMC2290058 (The Journal of Cell Biology, 1992):

How the values were obtained:
alpha4 integrin subunit = experiment: Flow cytometry, cell surface expression of alpha4 integrin after treatment; assay type: cell-based, human; conditions: 1 mM xyloside 24 h (Fig. 2) or chondroitinase ABC (not shown); mAb P4C2
beta1 integrin subunit = experiment: Flow cytometry, cell surface expression of beta1 integrin after treatment; assay type: cell-based, human; conditions: 1 mM xyloside 24 h (Fig. 2) or chondroitinase ABC (not shown); mAb P4C10
[1] = system: A375SM human melanoma cells; experiment: Cytotoxicity check of treatments; assay type: cell-based; conditions: trypan blue exclusion; 3H-TdR or [35S]methionine incorporation; not shown
[2] = system: A375SM human melanoma cells; experiment: Promotion of melanoma cell adhesion to coated substrata; assay type: cell-based; conditions: for amount of coated ligand that promoted half maximal cell adhesion: peptide/OVA conjugate on Immulon 1 polystyrene wells, 30-min assay
anti-FN-C/H-III IgG = experiment: ELISA of purified anti-FN-C/H-III IgG; assay type: binding, rabbit; conditions: coated substrata; not shown
[3] = system: A375SM human melanoma cells; assay type: cell-based; conditions: for effect of ctDX (alphaDX) on cell adhesion to peptide: 1 mM inactive analogue, FN-C/H-III Fig. 5A, others not shown
[4] = system: A375SM human melanoma cells; assay type: cell-based
[5] = system: purified melanoma cell CSPG; experiment: Binding of purified melanoma CSPG or CS to peptide/OVA affinity columns; design: species or system human
[6] = earlier work, ref McCarthy et al., 1988a, 1990, Haugen et al.; cited from earlier work
[7] = target: CSPG binding to 33-kD fragment; design: species or system human; conditions: inhibitor 500 ug/ml, 2 h, 4°C; CSPG about 7,000 dpm; buffer control <50
[8] = target: tryptic/catheptic 33-kD carboxyl-terminal heparin binding fragment of human plasma fibronectin A-chains (human); experiment: ligand affinity column chromatography, competition
[9] = wells coated with 100 nmole FN-C/H-III/OVA (Fig. 5A)

## O=[N+]([O-])c1ccc(O[C@@H]2OC[C@@H](O)[C@H](O)[C@H]2O)cc1 [/3DX, p-nitrophenyl-/3-o-xylopyranoside]
alpha4 integrin subunit
  cell surface alpha4 integrin level compared to untreated controls: identical
beta1 integrin subunit
  cell surface beta1 integrin level compared to untreated controls: identical
[1]
  cytotoxic effect as cause of the inhibition of cell adhesion: not due to cytotoxic

## O=[N+]([O-])c1ccc(O[C@H]2OC[C@@H](O)[C@H](O)[C@H]2O)cc1 [ctDX, p-Nitrophenyl-ct-o-xylopyranoside]
[1]
  cytotoxic effect as cause of the inhibition of cell adhesion: not due to cytotoxic

## KNNQKSEPLIGRKKT [FN-C/H-II]
[2]
  amount of coated ligand that promoted half maximal cell adhesion: 20 nmol
anti-FN-C/H-III IgG
  recognition by anti-FN-C/H-III IgG in ELISA: did not recognize
[3]
  effect of ctDX (alphaDX) on cell adhesion to peptide: resistant
[3]; approximate, stated in text for chondroitinase ABC or /3DX
  inhibition of cell adhesion by chondroitinase ABC or /3DX: ~ 50%
[4]; P1D6 (Fig. 8), mean of triplicate
  effect of anti-alpha5 integrin mAb P1D6 on cell adhesion to peptide: did not inhibit
[4]; P4C2, not shown
  inhibition of cell adhesion to peptide by anti-alpha4 integrin mAb P4C2: 50-60%
[5]; affinity column, Discussion
  CSPG binding affinity compared with FN-C/H-III: lower affinity than that observed for FN-C/H-III
[5]; peptide/OVA column, applied in 0.05 M NaCl (Fig. 7)
  binding of purified CSPG to peptide affinity column: bound purified CSPG
[6]
  heparin binding: bind heparin

## OVA/OVA: ovalbumin coupled to ovalbumin, control conjugate
[7]
  CSPG in flow through of 33-kD fragment affinity column: 123 dpm

## YRVRVTPKEKTGPMKE [FN-C/H-III]
[2]; FN-C/H-III/OVA coated wells, 30-min assay (Fig. 4A)
  promotion of melanoma cell adhesion: promoted melanoma cell adhesion
[2]
  amount of coated ligand that promoted half maximal cell adhesion: 100 nmol
anti-FN-C/H-III IgG
  recognition by anti-FN-C/H-III IgG in ELISA: specifically recognized
[3]; 1 mM /3DX, wells coated with 100 nmole FN-C/H-III/OVA (Fig. 5A)
  effect of /3DX on cell adhesion to FN-C/H-III: inhibited
[3]
  effect of ctDX (alphaDX) on cell adhesion to peptide: not by heparitinase or t~DX
[3]; [9]
  effect of chondroitinase ABC on cell adhesion to FN-C/H-III: inhibited
  effect of heparitinase on cell adhesion to FN-C/H-III: not by heparitinase
[4]; P4C2, FN-C/H-III coated substrata
  effect of anti-alpha4 integrin mAb P4C2 on cell adhesion to peptide: did not inhibit cell adhesion

## cell surface chondroitin sulfate proteoglycan (CSPG) purified from A375SM human melanoma cells
[8]
  radioactivity bound to the 33-kD fragment column, buffer alone: 6980 dpm

## chondroitinase ABC
alpha4 integrin subunit
  cell surface alpha4 integrin level compared to untreated controls: identical
beta1 integrin subunit
  cell surface beta1 integrin level compared to untreated controls: identical
[1]
  cytotoxic effect as cause of the inhibition of cell adhesion: not due to cytotoxic
